How the values were obtained:
[1] = test system: murine small intestinal IEC-6 cells; assay: Cytotoxic assay by MTT method; type: cell-based; conditions: for selectivity index (SI): CC50 (IEC-6) relative to IC50 (α-glucosidase)
Description: (§1) The cytotoxicity on murine small intestinal IEC-6 cells were assayed by MTT (3-[4,5-dimethyl thiazol-2-yl]-2,5-diphenyl tetrazolium bromide) method. The IEC-6 cells were cultured in Dulbecco’s modified Eagle’s medium (DMEM) supplemented with 5% fetal bovine serum (FBS) under a humidified atmosphere of 5% CO2 and 95% air at 37 °C. Cell suspension, 100 μL, at a density of 2 × 10^4 cell mL^−1 was plated in 96-well microtiter plates and exposed to different concentrations of compounds in triplicate for 72 h. The initial concentrations of compounds were 2 mg/mL in DMSO, and then were diluted into 625, 125, 25, 5, and 1 μg/mL with RPMI-1640 medium, respectively. The experiments were divided into blank control, testing compounds and the positive control groups, and each group was set up three parallels. Then, 10 μL of PBS containing MTT (final concentration: 0.5 mg/mL) was added to each well. After 4 h incubation at 37 °C, the supernatant was removed and 200 μL of DMSO was added to each well to solubilize the formazan crystals. After vigorous shaking, absorbance values were measured in a microplate reader (Bio-Rad, USA) at 570 nm. The cytotoxicity was represented at these concentrations as [(ODblank − ODdrug)/ODblank × 100%]. The CC50 value, defined as the compound concentration necessary to induce cell cytotoxicity by 50%, was calculated by SPSS (Statistical Product and Service Solutions) v19.0 software.

[2] = Cytotoxic assay by MTT method; type: cell-based, murine; conditions: murine, IEC-6 small intestinal cells, MTT, 72 h exposure; read-out: CC50, cytotoxicity on IEC-6 cell line
Description: as §1

[3] = molecular target: α-glucosidase; assay: α-Glucosidase inhibitory effect assay with pNPG as substrate; type: biochemical; conditions: 37 °C, 15 min, pH 6.8, read-out: IC50, α-glucosidase inhibition
Description: The inhibitory effects were assayed as described preciously. The sample was dissolved in sodium phosphate buffer (PBS, pH 6.8) at three concentrations. A volume of 10 μL of the sample solution, 20 μL of PBS and 20 μL of […] p-nitrophenyl-α-D-glucopyranoside (pNPG) solution (in phosphate buffer) were mixed in a 96-well microplate and incubated at 37 °C for 5 min. […] After incubating at 37 °C for 15 min, the absorbance at 405 nm was recorded by a Spectra max 190 micro plate reader (Molecular Devices Inc.).

[4] = test system: α-glucosidase; assay: Kinetics of α-glucosidase inhibition (Lineweaver-Burk plot analysis); type: biochemical; conditions: for mode of α-glucosidase inhibition: Lineweaver-Burk plot; for Ki: pNPG 0.5–2.0 mM, 37 °C, 15 min
Description: Optimal amounts of compounds 1 and 2 used were determined based on the enzyme inhibitory activity assay.

Row | IC50 [3] [µM] | mode of α-glucosidase inhibition [4] | Ki [4] [µM] | SMILES | selectivity index (SI) [1] | CC50 at 72 h [2] [µM] | CC50 ([1]; MTT, 72 h exposure, read-out: CC50, cytotoxicity on IEC-6 cell line) [µM]
1 | 989 | – | – | O=C1CC(O)(c2ccccc2)C(c2cc(O)cc(=O)o2)c2cccc(O)c21 (stereo not shown) [Compound 3, Wailupemycin D] | 2.8 | 2750 | –
2 | 392 | – | – | O=C1CC(O)(c2ccccc2)C(c2cc(O)cc(=O)o2)c2cccc(O)c21 (stereo not shown) [Compound 4, Wailupemycin E] | 7.6 | – | 2980
3 | 239 | – | – | O=c1cc(O)cc(-c2c(-c3ccccc3)cc(O)c3c(O)cccc23)o1 [Compound 5, wailupemycin G] | 12.3 | 2950 | –

Second part, the compound before the results:

Row | SMILES | IC50 [3] [µM] | mode of α-glucosidase inhibition [4] | Ki [4] [µM] | selectivity index (SI) [1] | CC50 at 72 h [2] [µM] | CC50 ([1]; MTT, 72 h exposure, read-out: CC50, cytotoxicity on IEC-6 cell line) [µM]
4 | O=C1C[C@](O)(c2ccccc2)[C@@H](c2cc(O)c(Cc3c(O)cc(-c4c(-c5ccccc5)cc(O)c5c(O)cccc45)oc3=O)c(=O)o2)c2cccc(O)c21 [Compound 1, Wailupemycin H] | 19.7 | competitive | 16.8 | 14.2 | 280 | –
5 | O=C1C[C@](O)(c2ccccc2)[C@H](c2cc(O)c(Cc3c(O)cc(-c4c(-c5ccccc5)cc(O)c5c(O)cccc45)oc3=O)c(=O)o2)c2cccc(O)c21 [Compound 2, Wailupemycin I] | 8.3 | competitive | 6 | 158.5 | 1320 | –

Reference: article PMC4731795, “New α-glucosidase inhibitors from marine algae-derived Streptomyces sp. OUCMDZ-3434” (Scientific Reports, 2016)
